The structures appear in SMILES notation.

The nature of series [1]: The half-life period was determined. It counts as ADME.
Series [2] has as its target T1, Human immunodeficiency virus type 1 protease (Human immunodeficiency virus 1, UniProt Q72874). The series is described as follows: Compound was evaluated for its binding affinity against HIV-1 protease.
For series [3], the target named is T1, Human immunodeficiency virus type 1 protease. The series is described as follows: Compound was evaluated for its inhibitory activity against HIV-1 protease.

Usually half-life stands for how long it takes for the measured level to halve. Read a high half-life as slow loss. As a reminder, the Ki is a dissociation constant, usually derived from enzyme kinetics or from competition with a known ligand. The low end stands for higher affinity, the high end for lower affinity. In general, IC50 refers to the concentration that inhibits the measured activity by half. The low end stands for greater potency in that assay, the high end for weaker potency in that assay. Turning to `NC(=O)[C@H](Cc1ccccc1)NP(=O)(O)C(Cc1ccccc1)NC(=O)C(F)(F)F` (stereo not given in full), the half-life in series [1] is 30 h. The same molecule registered an inhibition constant Ki in series [2] of 45 µM. In addition, half-maximal inhibition in series [3] (IC50) was put at 105 µM.
`COP(=O)(N[C@@H](Cc1ccccc1)C(N)=O)C(Cc1ccccc1)NC(=O)C(F)(F)F` (stereo not given in full) yielded an inhibition constant (Ki) in series [2] of 80 µM. In series [3], this molecule had an IC50 of 184 µM.
In series [2], `COP(=O)(C(Cc1ccccc1)NC(=O)C(F)(F)F)N1CCC[C@H]1C(N)=O` (stereo not given in full) displayed a Ki of 44 µM. The molecule further registered an IC50 in series [3] of 103 µM.
In series [1], `NC(=O)[C@@H]1CCCN1P(=O)(O)C(Cc1ccccc1)NC(=O)C(F)(F)F` (stereo not given in full) had a half-life of 5 h. The molecule further returned a Ki in series [2] of 52 µM. The concentration for half-maximal inhibition (IC50) in series [3] worked out at 121 µM.

Source of the values: ChEMBL document CHEMBL1152026, “Phosphonamidates and phosphonamidate esters as HIV-1 protease inhibitors” (Bioorg Med Chem Lett, 1991).
